From US20260306460A1, “COMPOSITION FOR REMOVING AND INHIBITING SENESCENT CELLS, AND USES THEREOF” (LIFECEUTIX CO., LTD., priority 2023, published 2026)

Legend:
[1] = test system: HMGN1 secreted from senescent A549 cells; assay: HMGN1 secretion (ELISA) from senescent A549 cancer cells, Example 12; type: cell-based, human; conditions: senescent untreated = 100%; 30 μM; 90 μM for LX-305, 905, 1302, 1601, 1603, 2003, 2702, 2901, 3106; 270 μM for LX-1103, 2005, 2007;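 also: A549 cells made senescent by doxorubicin exposure, with DMSO-treated cells serving as the non-senescent control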
[2] = test system: naturally aged mice; assay: Anti-aging evaluation in naturally aged mice, Example 31, Table 55; type: in vivo, mouse; conditions: for Femur Ctsk mRNA / Kidney Agtr1a mRNA / Liver IL6 mRNA / Liver MMP3 mRNA / Liver p16 mRNA / Open Field Test Time in Center: untreated = 100%; for Heart Sur2a mRNA / Joint Col2a1 mRNA / Skin Col1a1 mRNA / Skin SDF1 mRNA: untreated = 1.0; for Muscle Mass: untreated 0.64 g; for Fat Mass: untreated 0.82 g; for Cataract incidence: untreated 83%;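 as to all read-outs here: Vehicle-dosed control mice received solution alone at matching volume, values compare test-compound-treated aged mice against that control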
[3] = test system: carbon tetrachloride-induced liver fibrosis mice; assay: Carbon tetrachloride-induced liver fibrosis mice, Example 31, Table 57; type: in vivo, mouse; conditions: CCl4-induced liver fibrosis mice, untreated = 100%
Procedure, shortened: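 Mice with induced hepatic fibrosis received either the test compound or, as controls, an equal volume of vehicle solution alone. Once dosing ended, liver tissue was harvested and total RNA was isolated. cDNA was synthesized from this RNA, and quantitative RT-PCR was run on it to measure hepatic mRNA levels of the fibrosis- and senescence-related genes.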

[4] = test system: senescent human cells; assay: Viability of doxorubicin-induced senescent human cells (CellTiter-Glo), Example 11; type: cell-based; conditions: Homo sapiens, 0 μM = 100, read-out: Survival; for viability at […]: 3.3 μM
[5] = test system: senescent A549 cells; assay: Viability of senescent A549 cancer cells (CellTiter-Glo), Example 12; type: cell-based, human; conditions: Homo sapiens, A549, 0 μM = 100, read-out: Survival
[6] = test system: bleomycin-induced pulmonary fibrosis mice; assay: Bleomycin-induced pulmonary fibrosis mice, Example 31, Table 56; type: in vivo, mouse; conditions: untreated = 100%
Procedure, shortened: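 Mice with bleomycin-induced pulmonary fibrosis, untreated or given test compound, with vehicle-only controls. Lung tissue collected for RNA extraction and qRT-PCR analysis.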

[7] = test system: senescent foreskin cells; assay: Survival of senescent human cells treated with supernatant (secreted fluid) from death-induced cells, Example 13; type: cell-based; conditions: Table 8; supernatant from dying senescent cells treated at 30, 90 or 270 μM (as Example 11); senescent treated cells
[8] = test system: senescent A549 cells; assay: Viability of senescent A549 cells (CellTiter-Glo), Example 18, Table 15; conditions: doxorubicin-induced senescent A549 cells, 0 μM = 100%
[9] = test system: senescent cells; assay: Viability of senescent cells (CellTiter-Glo), Example 17, Table 13; conditions: doxorubicin-induced senescent cells, 0 μM = 100
[10] = test system: HMGN1 secreted from senescent A549 cells; assay: HMGN1 secretion (ELISA) from senescent A549 cells, Example 18, Table 14; type: cell-based, human; conditions: doxorubicin-senescent A549, without test compound (DMSO) = 100%; 30 μM (LX-5211, LX-5433, LX-6530, LX-6800, LX-9105, LX-9118, LX-9131, LX-9136, LX-9302, LX-9321, LX-9565, LX-9602 at 90 μM; LX-9336 at 2.4 mM)

Compound | HMGN1 [1] | Femur Ctsk mRNA [2] | Heart Sur2a mRNA [2] | Joint Col2a1 mRNA [2] | Kidney Agtr1a mRNA [2] | Liver IL6 mRNA [2] | Liver MMP3 mRNA [2] | Liver p16 mRNA [2] | Open Field Test Time in Center [2] | Skin Col1a1 mRNA [2] | Skin SDF1 mRNA [2] | Muscle Mass [2] | Fat Mass [2] | Cataract incidence [2] | Liver p16 mRNA [3] | Col1a1 mRNA [3] | Lung p16 mRNA [6] | Col1a1 mRNA [6] | Survival [7] | also measured
Cc1nnc(-c2cc(C(=O)N3CCC(c4ccc(C#N)cc4)CC3)c(C)cc2C2CCC2)[nH]1 [LX-305] | 227% | 73% | 1.8 fold | 2.6 fold | 73% | 61% | 78% | 69% | 157% | 1.7 Fold | 1.9 fold | 0.66 g | 0.91 g | 75% | 64 (±2.3) % | 70 (±3.2) % | 62 (±3.5) % | 73 (±4.1) % | 89.5 | viability at 1.1 µM ([4]; 1.1 μM): 101%; viability at […] [4]: 97.2%; viability at 10 µM ([4]; 10 μM): 91%; viability at 30 µM ([4]; 30 μM): 78%; viability at 90 µM ([4]; 90 μM): 23.2%; viability at 1.1 µM ([5]; 1.1 μM): 99.2%; viability at […] ([5]; 3.3 μM): 93.8%; viability at 10 µM ([5]; 10 μM): 63.1%; viability at 30 µM ([5]; 30 μM): 41%; viability at 90 µM ([5]; 90 μM): 13.3%
CCN(CC)C(=S)SSC(=S)N(CC)CC [LX-1601, Disulfiram] | 257% | 40% | 2.6 fold | 2.0 fold | 66% | 43% | 39% | 62% | 228% | 1.8 Fold | 2.1 fold | 0.74 g | 1.20 g | 62% | 48 (±4.0) % | 50 (±2.0) % | 52 (±3.7) % | 63 (±4.6) % | 81.4 | viability at […] [4]: 90%
CO[C@]1(C(=O)N[C@@H](C)c2ccc(-n3cc(F)cn3)nc2)CC[C@H](c2nc(C)cc(Nc3cc(C)[nH]n3)n2)CC1 [LX-1902, Pralsetinib] | 271% | 81% | 1.5 fold | 1.5 fold | 71% | 79% | 81% | 72% | 157% | 1.2 Fold | 1.6 fold | 0.68 g | 0.95 g | 76% | 77 (±9.6) % | 68 (±5.7) % | 72 (±8.8) % | 64 (±8.2) % | 53.4 | 
CC/C=C\C/C=C\C/C=C\C/C=C\C/C=C\C/C=C\CCC(=O)O [LX-2702, Docosahexaenoic acid] | 237% | 50% | 2.3 fold | 2.8 fold | 57% | 54% | 73% | 80% | 211% | 1.8 Fold | 2.7 fold | 0.72 g | 1.13 g | 66% | 46 (±3.2) % | 53 (±6.1) % | 53 (±2.8) % | 43 (±5.9) % | 68.6 | 
O=C(NCc1ccncc1)C12CC3CC(C1)CC(c1ccc(Cl)cc1)(C3)C2 [LX-3106, Opaganib] | 236% | 76% | 1.6 fold | 2.0 fold | 83% | 71% | 85% | 76% | 193% | 1.3 Fold | 1.3 fold | 0.72 g | 0.88 g | 71% | 81 (±6.5) % | 71 (±5.4) % | 67 (±4.3) % | 77 (±3.7) % | 72.6 | 
C[C@H](N)C(=O)N1C[C@H](CCCB(O)O)[C@](N)(C(=O)O)C1 [LX-3107, Numidargistat] | 267% | 81% | 1.7 fold | 1.1 fold | 75% | 49% | 68% | 54% | 167% | 1.2 Fold | 1.4 fold | 0.67 g | 0.99 g | 65% | 80 (±3.6) % | 69 (±8.0) % | 81 (±3.9) % | 68 (±5.1) % | 62.1 | 
CC(=O)N[C@@H](Cc1c[nH]c2ccccc12)C(=O)N[C@@H](CCC(=O)C=[N+]=[N-])C(=O)OC(C)C [LX-3201, Sirpiglenastat] | 309% | 80% | 2.1 fold | 1.7 fold | 78% | 71% | 64% | 80% | 171% | 1.6 Fold | 2.0 fold | 0.71 g | 1.06 g | 76% | 71 (±9.4) % | 82 (±8.2) % | 77 (±5.9) % | 73 (±3.8) % | 55.2 | 
Cc1[nH]nc(C(F)(F)F)c1Cc1sc2c(c1C(=O)N1C[C@](C)(O)CO1)c(=O)n(C)c(=O)n2C(C)C [LX-3203] | 293% | 55% | 1.8 fold | 1.6 fold | 68% | 67% | 62% | 66% | 183% | 1.8 Fold | 2.2 fold | 0.68 g | 0.85 g | 75% | 64 (±4.0) % | 66 (±4.5) % | 69 (±5.0) % | 64 (±4.5) % | 57.1 | 
CCc1nc(C(N)=O)c(Nc2ccc(N3CCC(N4CCN(C)CC4)CC3)c(OC)c2)nc1NC1CCOCC1 [LX-3303, Gilteritinib] | 239% | 76% | 1.9 fold | 2.1 fold | 69% | 83% | 73% | 63% | 186% | 1.2 Fold | 1.7 fold | 0.72 g | 1.08 g | 61% | 62 (±4.9) % | 65 (±6.2) % | 68 (±6.9) % | 78 (±5.1) % | 53.5 | 
Alirocumab [LX-9562] |  |  |  |  |  |  |  |  |  |  |  |  |  |  |  |  |  |  |  | Survival (%) ([8]; 1.1 μM): 94.1%; Survival (%) ([8]; 10 μM): 51.8%; Survival (%) ([8]; 30 μM): 2.1%; Survival (%) ([8]; […]): 89.1%; Survival (%) ([9]; 1.1 μM): 97.0%; Survival (%) ([9]; 10 μM): 45.4%; Survival (%) ([9]; 30 μM): 14.0%; Survival (%) ([9]; […]): 97.3%; HMGN1 [10]: 269%
